# Like-named read-outs stand apart in the source and are kept apart here.
# Biological target: recombinant human SAE enzyme (Homo sapiens (Human), UniProt Q9UBT2)
# Test: SAE HTRF enzyme assay
# Type: biochemical
# Settings: for inhibition at 0.111 µM: read-out: Percent Inhibition
# Summary of the method: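 0.11 nM SAE incubated with 0.5 μM ATP, 0.01 μM Ubc9-GST and 0.125 μM Sumo-Flag in HEPES pH 7.5, MgCl2, GSH, BSA, ±inhibitor, 105 min at 24° C. EDTA stop; Eu-cryptate anti-Flag/XL-APC anti-GST HTRF read after 2 h. Values given as single-concentration % inhibition or IC50.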
# [1] = SAE inhibition at compound concentration 0.111 μM
# [2] = SAE inhibition, class symbols, legend in nM
# Chain of recombinant human SAE enzyme (Q9UBT2 whole entry): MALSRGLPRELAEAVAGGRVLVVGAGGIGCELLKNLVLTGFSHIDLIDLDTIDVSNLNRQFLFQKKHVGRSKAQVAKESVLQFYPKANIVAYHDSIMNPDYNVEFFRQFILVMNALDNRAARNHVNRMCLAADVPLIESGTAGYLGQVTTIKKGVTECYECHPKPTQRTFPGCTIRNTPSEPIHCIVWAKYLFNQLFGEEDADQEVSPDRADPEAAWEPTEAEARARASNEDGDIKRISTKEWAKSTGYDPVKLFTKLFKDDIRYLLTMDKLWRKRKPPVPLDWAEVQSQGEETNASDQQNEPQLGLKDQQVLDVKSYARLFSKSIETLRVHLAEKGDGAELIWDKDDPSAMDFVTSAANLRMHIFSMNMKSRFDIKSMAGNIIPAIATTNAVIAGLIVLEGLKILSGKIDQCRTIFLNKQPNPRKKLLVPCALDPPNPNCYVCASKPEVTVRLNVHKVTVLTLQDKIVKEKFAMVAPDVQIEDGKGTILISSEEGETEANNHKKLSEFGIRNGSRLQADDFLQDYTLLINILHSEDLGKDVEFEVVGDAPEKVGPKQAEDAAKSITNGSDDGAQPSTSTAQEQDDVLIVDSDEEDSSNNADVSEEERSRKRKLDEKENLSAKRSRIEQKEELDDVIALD
# Chain of recombinant human SAE enzyme (Q9UBE0 whole entry partner): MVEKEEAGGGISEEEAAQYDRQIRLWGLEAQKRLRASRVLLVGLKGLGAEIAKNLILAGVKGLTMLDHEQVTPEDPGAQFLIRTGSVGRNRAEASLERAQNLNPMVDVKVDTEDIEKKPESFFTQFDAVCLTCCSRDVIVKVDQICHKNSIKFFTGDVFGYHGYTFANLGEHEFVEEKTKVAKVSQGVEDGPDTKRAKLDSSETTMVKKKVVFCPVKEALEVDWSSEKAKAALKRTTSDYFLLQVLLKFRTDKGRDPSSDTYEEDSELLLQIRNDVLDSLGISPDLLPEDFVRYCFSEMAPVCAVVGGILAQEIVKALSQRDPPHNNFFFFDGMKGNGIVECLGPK
SMILES,Percent Inhibition (Concentration 0.111 μM),IC50 (class symbols A/B/C),also measured
"NS(=O)(=O)OC[C@H]1C[C@@H](Nc2ncncc2C(=O)c2cc([C@@]3(c4cccc(Cl)c4)CCCN3)cs2)C[C@@H]1O (single isomer, unassigned) [I-38a, [(1R,2S,4R)-4-{[5-({4-[(2S)-2-(3-chlorophenyl)pyrrolidin-2-yl]-2-thienyl}carbonyl)pyrimidin-4-yl]amino}-2-hydroxycyclopentyl]methyl sulfamate or [(1R,2S,4R)-4-{[5-({4-[(2R)-2-(3-chlorophenyl)pyrrolidin-2-yl]-2-thienyl}carbonyl)pyrimidin-4-yl]amino}-2-hydroxycyclopentyl]methyl sulfamate]",75,10 to 100 nM,–
"NS(=O)(=O)OC[C@H]1C[C@@H](Nc2ncncc2C(=O)c2cc([C@H](O)c3cc(Cl)ccc3Cl)c(Cl)s2)C[C@@H]1O (mixture of isomers) [I-149, [(1R,2S,4R)-4-{[5-({5-chloro-4-[(R)-(2,5-dichlorophenyl)(hydroxy)methyl]-2-thienyl}carbonyl)pyrimidin-4-yl]amino}-2-hydroxycyclopentyl]methyl sulfamate and [(1R,2S,4R)-4-{[5-({5-chloro-4-[(S)-(2,5-dichlorophenyl)(hydroxy)methyl]-2-thienyl}carbonyl)pyrimidin-4-yl]amino}-2-hydroxycyclopentyl]methyl sulfamate]",97,< 10 nM,–
"NS(=O)(=O)OC[C@H]1C[C@@H](Nc2ncncc2C(=O)c2cc(CC3=CCSCC3)cs2)C[C@@H]1O [I-173, {(1R,2S,4R)-4-[(5-{[4-(3,6-dihydro-2H-thiopyran-4-ylmethyl)-2-thienyl]carbonyl}pyrimidin-4-yl)amino]-2-hydroxycyclopentyl}methyl sulfamate]",–,10 to 100 nM,inhibition at 0.111 µM (Concentration 0.111 μM): 86%
"CCc1ccc2c(c1)[C@H](c1cc(C(=O)c3cncnc3N[C@@H]3C[C@H](COS(N)(=O)=O)[C@@H](O)C3)sc1C)OCC2 (mixture of isomers) [I-346, [(1R,2S,4R)-4-{[5-({4-[(1R)-7-ethyl-3,4-dihydro-1H-isochromen-1-yl]-5-methyl-2-thienyl}carbonyl)pyrimidin-4-yl]amino}-2-hydroxycyclopentyl]methyl sulfamate and [(1R,2S,4R)-4-{[5-({4-[(1S)-7-ethyl-3,4-dihydro-1H-isochromen-1-yl]-5-methyl-2-thienyl}carbonyl)pyrimidin-4-yl]amino}-2-hydroxycyclopentyl]methyl sulfamate]",–,–,Percent Inhibition [1]: 99%; IC50 [2]: < 10 nM
"COc1ccc2c(n1)[C@H](c1cc(C(=O)c3cncnc3N[C@@H]3C[C@H](COS(N)(=O)=O)[C@@H](O)C3)sc1C)OCC2 (single isomer, unassigned) [I-339a, [(1R,2S,4R)-2-hydroxy-4-{[5-({4-[(8S)-2-methoxy-5,8-dihydro-6H-pyrano[3,4-b]pyridin-8-yl]-5-methyl-2-thienyl}carbonyl)pyrimidin-4-yl]amino}cyclopentyl]methyl sulfamate or [(1R,2S,4R)-2-hydroxy-4-{[5-({4-[(8R)-2-methoxy-5,8-dihydro-6H-pyrano[3,4-b]pyridin-8-yl]-5-methyl-2-thienyl}carbonyl)pyrimidin-4-yl]amino}cyclopentyl]methyl sulfamate]",–,–,Percent Inhibition [1]: 99%; IC50 [2]: < 10 nM
"CC(O)(c1cccc(Cl)c1)c1cc(C(=O)c2cncnc2N[C@@H]2C[C@H](COS(N)(=O)=O)[C@@H](O)C2)sc1Cl (single isomer, unassigned) [I-102a, [(1R,2S,4R)-4-{[5-({5-chloro-4-[(1R)-1-(3-chlorophenyl)-1-hydroxyethyl]-2-thienyl}carbonyl)pyrimidin-4-yl]amino}-2-hydroxycyclopentyl]methyl sulfamate or [(1R,2S,4R)-4-{[5-({5-chloro-4-[(1S)-1-(3-chlorophenyl)-1-hydroxyethyl]-2-thienyl}carbonyl)pyrimidin-4-yl]amino}-2-hydroxycyclopentyl]methyl sulfamate]",36,100 to 1000 nM,–
"NS(=O)(=O)OC[C@H]1C[C@@H](Nc2ncncc2C(=O)c2cc(Cc3ccc(F)c(Cl)c3)cs2)C[C@@H]1O [I-61, {(1R,2S,4R)-4-[(5-{[4-(3-chloro-4-fluorobenzyl)-2-thienyl]carbonyl}pyrimidin-4-yl)amino]-2-hydroxycyclopentyl}methyl sulfamate]",–,< 10 nM,inhibition at 0.111 µM (Concentration 0.111 μM): 98%
"NS(=O)(=O)OC[C@H]1C[C@@H](Nc2ncncc2C(=O)c2ncc(Cc3ccccc3)s2)[C@H](O)[C@@H]1O [I-350, [(1R,2R,3S,4R)-4-({5-[(5-benzyl-1,3-thiazol-2-yl)carbonyl]pyrimidin-4-yl}amino)-2,3-dihydroxycyclopentyl]methyl sulfamate]",–,–,inhibition at 0.111 µM [1]: 75%; IC50 [2]: 10 to 100 nM
"N[C@@H](c1cccc(Cl)c1)c1cc(C(=O)c2cncnc2N[C@@H]2C[C@H](COS(N)(=O)=O)[C@@H](O)[C@H]2O)sc1Cl (single isomer, unassigned) [I-14b, [(1R,2R,3S,4R)-4-{[5-({4-[(S)-Amino(3-chlorophenyl)methyl]-5-chloro-2-thienyl)carbonyl)pyrimidin-4-yl]amino}-2,3-dihydroxycyclopentyl]methyl sulfamate or [(1R,2R,3S,4R)-4-{[5-({4-[(R)-Amino(3-chlorophenyl)methyl]-5-chloro-2-thienyl}carbonyl)pyrimidin-4-yl]amino}-2,3-dihydroxycyclopentyl]methyl sulfamate]",95,< 10 nM,–
"CC(=O)c1cc(C(=O)c2cncnc2N[C@@H]2C[C@H](COS(N)(=O)=O)[C@@H](O)C2)sc1Cl [I-242, [(1R,2S,4R)-4-{(5-[(4-Acetyl-5-chloro-2-thienyl)carbonyl]pyrimidin-4-yl}amino)-2-hydroxycyclopentyl]methyl sulfamate]",–,100 to 1000 nM,inhibition at 0.111 µM (Concentration 0.111 μM): 25%
"NS(=O)(=O)OC[C@H]1C[C@@H](Nc2ncncc2C(=O)c2cc(Cc3cccc(Br)c3)c(Cl)s2)C[C@@H]1O [I-112, {(1R,2S,4R)-4-[(5-{[4-(3-bromobenzyl)-5-chloro-2-thienyl]carbonyl}pyrimidin-4-yl)amino]-2-hydroxycyclopentyl}methyl sulfamate]",–,–,inhibition at 0.111 µM (Concentration 0.111 μM): 97%
"Cc1sc(C(=O)c2cncnc2N[C@@H]2C[C@H](COS(N)(=O)=O)[C@@H](O)C2)cc1[S@+]([O-])c1cccc(Cl)c1.Cc1sc(C(=O)c2cncnc2N[C@@H]2C[C@H](COS(N)(=O)=O)[C@@H](O)C2)cc1[S@@+]([O-])c1cccc(Cl)c1 (mixture of isomers) [I-28, [(1R,2S,4R)-4-{[5-({4-[(R)-(3-chlorophenyl)sulfinyl]-5-methyl-2-thienyl}carbonyl)pyrimidin-4-yl]amino}-2-hydroxycyclopentyl]methyl sulfamate and [(1R,2S,4R)-4-{[5-({4-[(S)-(3-chlorophenyl)sulfinyl]-5-methyl-2-thienyl}carbonyl)pyrimidin-4-yl]amino}-2-hydroxycyclopentyl]methyl sulfamate]",98,< 10 nM,–
"NS(=O)(=O)OC[C@H]1C[C@@H](Nc2ncncc2C(=O)c2cc([C@H](O)c3ccccc3)c(Cl)s2)C[C@@H]1O (mixture of isomers) [I-56, [(1R,2S,4R)-4-{[5-({5-chloro-4-[(R)-hydroxy(phenyl)methyl]-2-thienyl}carbonyl)pyrimidin-4-yl]amino}-2-hydroxycyclopentyl]methyl sulfamate and [(1R,2S,4R)-4-{[5-({5-chloro-4-[(S)-hydroxy(phenyl)methyl]-2-thienyl}carbonyl)pyrimidin-4-yl]amino}-2-hydroxycyclopentyl]methyl sulfamate]",98,< 10 nM,–
"N[C@H](c1cccc(Cl)c1)c1cc(C(=O)c2cncnc2N[C@@H]2C[C@H](COS(N)(=O)=O)[C@@H](O)C2)sc1Cl (single isomer, unassigned) [I-15b, [(1R,2S,4R)-4-{[5-({4-[(R)-amino(3-chlorophenyl)methyl]-5-chloro-2-thienyl}carbonyl)pyrimidin-4-yl]amino}-2-hydroxycyclopentyl]methyl sulfamate or [(1R,2S,4R)-4-{[5-({4-[(S)-amino(3-chlorophenyl)methyl]-5-chloro-2-thienyl}carbonyl)pyrimidin-4-yl]amino}-2-hydroxycyclopentyl]methyl sulfamate]",100,< 10 nM,–
"Cc1cnn(Cc2cc(C(=O)c3cncnc3N[C@@H]3C[C@H](COS(N)(=O)=O)[C@@H](O)C3)sc2C)c1 [I-78, [(1R,2S,4R)-2-hydroxy-4-{[5-({5-methyl-4-[(4-methyl-1H-pyrazol-1-yl)methyl]-2-thienyl}carbonyl)pyrimidin-4-yl]amino}cyclopentyl]methyl sulfamate]",–,–,inhibition at 0.111 µM (Concentration 0.111 μM): 98%
"C[C@@](O)(c1cccc(Cl)c1)c1cc(C(=O)c2cncnc2N[C@@H]2C[C@H](COS(N)(=O)=O)[C@@H](O)C2)sc1Cl (mixture of isomers) [I-102, [(1R,2S,4R)-4-{[5-({5-Chloro-4-[(1S)-1-(3-chlorophenyl)-1-hydroxyethyl]-2-thienyl}carbonyl)pyrimidin-4-yl]amino}-2-hydroxycyclopentyl]methyl sulfamate and [(1R,2S,4R)-4-{[5-({5-Chloro-4-[(1R)-1-(3-chlorophenyl)-1-hydroxyethyl]-2-thienyl}carbonyl)pyrimidin-4 yl]amino}-2-hydroxycyclopentyl]methyl sulfamate]",94,< 10 nM,–
"Cc1ccn(Cc2csc(C(=O)c3cncnc3N[C@@H]3C[C@H](COS(N)(=O)=O)[C@@H](O)C3)c2)c1 [I-170, [(1R,2S,4R)-2-Hydroxy-4-({[5-({4-[(3-methyl-1H-pyrrol-1-yl)methyl]-2-thienyl}carbonyl)pyrimidin-4-yl]amino}cyclopentyl]methyl sulfamate]",91,10 to 100 nM,–

# — patent publication US10780090B2, “Heteroaryl compounds useful as inhibitors of SUMO activating enzyme” (Millennium Pharmaceuticals, Inc., priority 2014, dated 2020)
